Measured values from patent publication US20140087991A1, “PEPTIDE PRODRUGS” (The Johns Hopkins University, priority 2006, published 2014).
Ends that are not written are not given here. * marks the point of attachment. Mu = morpholinocarbonyl, O=C(N1CCOCC1)*

Test system: human MDA-MB231 breast cancer xenografts
Experiment: Antitumor effect in breast cancer xenografts
Format: in vivo, nude mice
Conditions: FIG. 6 legend, values not given

FAP activated prodrug: FAP selective peptide Mu-SGEAGPA (Mu = morpholinocarbonyl) coupled to 12 ADT (12-aminododecanoyl thapsigargin) (not fully specified (C-terminus); printed as Mu-SGEAGPA; also: coupled to 12ADT (12-aminododecanoyl thapsigargin))
antitumor effect: antitumor effect
